Data from publication PMC7708037, “Targeting OGG1 arrests cancer cell proliferation by inducing replication stress” (Nucleic Acids Research, 2020).

Test system: γH2AX in A3 cells
Assay: Phosphorylated γH2AX (immunofluorescence / flow cytometry)
Assay type: cell-based, human
Settings: 10 μM
Procedure: A3 cells were seeded in a 96-well plate 24 h prior to start of the experiment. Cells were then treated with 10 μM TH5487, for 24, 48 and 72 h, respectively or with 2 mM hydroxyurea for 1 h. Final DMSO concentration was 0.2%. After the treatment, cells were transferred to an imaging plate (black Falcon 96-well plate) pre-coated with 0.1% poly L-lysine (Sigma). Cells were allowed to attach for 15 minutes and were then fixed with 4% paraformaldehyde. The plate was washed with 0.05% Tween 20 in PBS, cells were permeabilized with 0.5% Triton-X100 in PBS and blocked with 2% bovine serum albumin in PBS. […] Data from three independent experiments were pooled and analyzed for statistical significance by one-way analysis of variance.
At the indicated time points, compound/dox treated cells were incubated in medium containing 10 μM 5-ethynyl-2′-deoxyuridine (EdU) (Thermo Fisher, A10044) for 20 min. […] Data was analyzed using Kaluza® Flow Analysis Software (Beckman Coulter).
Figure 5. […] A3 cells were treated with 20 mM KBrO3 for 1 h or with 10 μM TH5487 for the indicated times, and the amount of genomic 8-oxodG was quantified with LC-MS/MS. […] A3 cells were treated with 10 μM TH5487 for 72 h and strand-breaks and OGG1 substrate lesions were analyzed with the OGG1-modified Comet assay. […] At least 33 000 nuclei per group were quantified from three independent experiments. […]

O=C(Nc1ccc(I)cc1)N1CCC(n2c(=O)[nH]c3c(Br)cccc32)CC1 [TH5487] was tested, and the “Cell cycle distribution of γH2AX positive cells” value (72 h) was “confined to S-phase cells” and the “Phosphorylated γH2AX” value (after 24 h) was “significant increase”.
